Test results from patent US7579432B2, “Cyclic peptides as G-protein-coupled receptor antagonists” (Promics Pty Limited, priority 2001, dated 2009).

System: antigen-induced arthritis
Test: Rat monoarticular antigen-induced arthritis
Type: in vivo
Experimental: Female Wistar rats (150-250 g) were obtained from the Central Animal Breeding House, University of Queensland. […] Each rat received a subcutaneous injection of this suspension (0.5 mL) on days 1 and 7. On day 12-28, rats were separated into separate cages, and body weight and food and water intake monitored daily. Rats received either ordinary tap water or drinking water containing AcF-[OPdChaWR] (1). […] Rats were euthanased on day 28, and whole blood collected into an Eppendorf tube and allowed to clot on ice. Blood samples were centrifuges (11,000 rpm×3 min) and serum collected and stored at −20° C. until analysis of serum cytokines using an ELISA. Each knee capsule was lavaged with 100 μL saline, and the total cell count determined using a haemocytometer. In addition, an aliquot of the knee joint lavage fluid was dropped onto a glass slide, and allowed to air dry. Once dry, cells were stained with a differential stain (Diff Quick) and a differential cell count was performed using a 40× dry lens microscope. The remaining lavage fluids from each joint were stored at −20° C. until later analysis of intra-articular cytokine levels using an ELISA. Each knee joint was removed and the skin was split with a scalpel blade to allow fixation. Knee samples were stored in 10% buffered formalin for≧10 d. Knees were then rinsed with distilled water and placed in a saturated solution of EDTA solution for 21 d for decalcification before being embedded in paraffin wax. Knee tissue samples were prepared using standard histological techniques as described above in Example 6 and stained using an heamotoxylin and eosin stain. Histological slides were analysed in a blinded fashion. […] In no samples was there evidence of significant bone erosion. Samples of serum and synovial fluid were thawed on the day of ELISA analysis for TNFα and IL-6 levels. Concentrations were determined from a standard curve, using an ELISA as described previously in Example 6.

CC(=O)N[C@@H](Cc1ccccc1)C(=O)N[C@H]1CCCNC(=O)[C@H](CCCNC(=N)N)NC(=O)[C@H](Cc2c[nH]c3ccccc23)NC(=O)[C@@H](CC2CCCCC2)NC(=O)[C@@H]2CCCN2C1=O [Compound 1, Ac-Phe-[Orn-Pro-dCha-Trp-Arg]]
inhibition: arthritic right knee joint swelling (given orally on Days −2 to +14) | right knee joint IL-6 levels in joint lavage (oral) | right knee joint TNF-α levels in joint lavage (oral)
